In paper PMC11407758, “Integrated stress response (ISR) activation and apoptosis through HRI kinase by PG3 and other p53 pathway-restoring cancer therapeutics” (Oncotarget, 2024):

Legend:
HT29 (R273H) = assay: Cell viability assay (CellTiterGlo), HT29; type: cell-based, human; details: Homo sapiens, HT-29; 72 h, CellTiterGlo
Description: (§1) Figure 1 PG3 inhibits cell proliferation and growth in a p53-indepent manner. (A–E) Cell viability assay, dose response curves and IC50 value measurements in a panel of cancer cell lines and normal cells. Cells were treated with different concentrations of PG3, PG3-Oc (Oc), obatoclax (Ob), prodigiosin (P) or DMSO for 72 h. Luciferase activity was imaged by the IVIS Imaging System after treatment. Cell viability data were normalized to those of DMSO treatment control in each cell line and data analyses were performed using PRISM4 software. IC50 data are expressed as the mean ±SD (normal; n = 3).
as §1, with “2 p53-dependent inhibition of” for “1 PG3 inhibits”, “is only observed at specific concentrations. (A–J)” for “and growth in a p53-indepent manner. (A–E)”, “ZMC1, CP-313908, APR-246, Ellipticine, Nutalin-3a” for “PG3, PG3-Oc (Oc), obatoclax (Ob), prodigiosin (P)”
(§2) Cells were seeded in 96-well plates (6 × 10^3 cells/well). Cells were treated with different concentrations of compounds or dimethyl sulfoxide (DMSO) as a control for 72 hours. The cell viability was assessed by CellTiterGlo bioluminescent cell viability assay (Promega), following the manufacturer’s protocol. Bioluminescence imaging was measured using the IVIS imager. The percentage of cell viability (mean ± SEM) at each dose was calculated against the respective DMSO control. The IC50 values were determined from the sigmoidal dose-response curves using GraphPad Prism.

TOV-112D (R175H) = assay: Cell viability assay (CellTiterGlo), TOV-112D; type: cell-based, human; details: Homo sapiens, TOV112D; 72 h, CellTiterGlo; read-out: IC50 values, TOV-1120 (R175H) (converted)
Description: as §1
as §1, with “2 p53-dependent inhibition of” for “1 PG3 inhibits”, “is only observed at specific concentrations. (A–J)” for “and growth in a p53-indepent manner. (A–E)”, “ZMC1, CP-313908, APR-246, Ellipticine, Nutalin-3a” for “PG3, PG3-Oc (Oc), obatoclax (Ob), prodigiosin (P)”
as §2

HCT116 (P53−/−) = assay: Cell viability assay (CellTiterGlo), HCT116 p53-/-; type: cell-based, human; details: Homo sapiens, HCT-116; 72 h, CellTiterGlo
Description: as §1
as §1, with “2 p53-dependent inhibition of” for “1 PG3 inhibits”, “is only observed at specific concentrations. (A–J)” for “and growth in a p53-indepent manner. (A–E)”, “ZMC1, CP-313908, APR-246, Ellipticine, Nutalin-3a” for “PG3, PG3-Oc (Oc), obatoclax (Ob), prodigiosin (P)”
as §2

HCT116 (WT) = assay: Cell viability assay (CellTiterGlo), HCT116 WT; type: cell-based, human; details: Homo sapiens, HCT-116; 72 h, CellTiterGlo
Description: as §1
as §1, with “2 p53-dependent inhibition of” for “1 PG3 inhibits”, “is only observed at specific concentrations. (A–J)” for “and growth in a p53-indepent manner. (A–E)”, “ZMC1, CP-313908, APR-246, Ellipticine, Nutalin-3a” for “PG3, PG3-Oc (Oc), obatoclax (Ob), prodigiosin (P)”
as §2

HCT116 (R175H) = assay: Cell viability assay (CellTiterGlo), HCT116 R175H; type: cell-based, human; details: Homo sapiens, HCT-116; 72 h, CellTiterGlo
Description: as §1
as §1, with “2 p53-dependent inhibition of” for “1 PG3 inhibits”, “is only observed at specific concentrations. (A–J)” for “and growth in a p53-indepent manner. (A–E)”, “ZMC1, CP-313908, APR-246, Ellipticine, Nutalin-3a” for “PG3, PG3-Oc (Oc), obatoclax (Ob), prodigiosin (P)”
as §2

[1] = system: HFF-1 (human foreskin fibroblast cell with wild-type p53); assay: Cell viability assay (CellTiterGlo), HFF-1 normal cells; type: cell-based; details: Homo sapiens, HFF-1; 72 h, CellTiterGlo, normal cells; read-out: IC50 values, HFF-l (WT)
Description: as §1
as §1, with “2 p53-dependent inhibition of” for “1 PG3 inhibits”, “is only observed at specific concentrations. (A–J)” for “and growth in a p53-indepent manner. (A–E)”, “ZMC1, CP-313908, APR-246, Ellipticine, Nutalin-3a” for “PG3, PG3-Oc (Oc), obatoclax (Ob), prodigiosin (P)”
as §2

[2] = system: MRC5 (human lung fibroblast cell with wild-type p53); assay: Cell viability assay (CellTiterGlo), MRC5 normal cells; type: cell-based; details: Homo sapiens, MRC5, 72 h, read-out: IC50 values, MRC5 (WT)
Description: as §1
as §1, with “2 p53-dependent inhibition of” for “1 PG3 inhibits”, “is only observed at specific concentrations. (A–J)” for “and growth in a p53-indepent manner. (A–E)”, “ZMC1, CP-313908, APR-246, Ellipticine, Nutalin-3a” for “PG3, PG3-Oc (Oc), obatoclax (Ob), prodigiosin (P)”
as §2

[3] = system: HT29, TOV-112D, isogenic HCT116 cell lines, HFF-1 and MRC5; assay: Cell viability assay, panel of cancer cell lines and normal cells (results in words); type: cell-based, human; details: 10 μM; all cell lines tested and normal cells
Description: as §1, with “2 p53-dependent inhibition of” for “1 PG3 inhibits”, “is only observed at specific concentrations. (A–J)” for “and growth in a p53-indepent manner. (A–E)”, “ZMC1, CP-313908, APR-246, Ellipticine, Nutalin-3a” for “PG3, PG3-Oc (Oc), obatoclax (Ob), prodigiosin (P)”
as §2

[4] = system: HCT116 (wild-type), SW480 (R273H, P309S), and DLD1 (S241F); assay: Cell viability assay in colorectal cancer cell lines (Figure 1E); type: cell-based, human; details: 72 h
Description: as §1, §2

[5] = system: SW480 cells carrying a p53-responsive luciferase reporter; assay: p53-responsive reporter assay; type: cell-based, human
Description: SW480 cells carrying a p53-responsive luciferase reporter were used for assay of functional restoration of mutant p53. Cells were seeded in 96-well plates (5 × 10^4 cells/well) and were treated with compounds indicated for 6 and 15 h, respectively. Then, D-luciferin was added to each well with final concentration 100 μg/mL, and cells were imaged by using an IVIS Imaging System to detect luciferase activity.
p53-mutant SW480 human colon cancer cells, stably expressing a p53-responsive luciferase reporter, were used to assay functional restoration p53 pathway-dependent transcription in mutant p53-expressing tumor cells. Cells were seeded in 96-well plates (5 × 10^4 cells/well) and were treated with small-molecule compounds for 6 and 15 h, respectively. Then, D-luciferin was added to each well at a final concentration of 100 μg/mL, and cells were imaged by using an IVIS Imaging System (Xenogen) to detect luciferase activity.

ATF4 = assay: Western blot, ATF4 induction; type: cell-based, human; details: five cancer cell lines, 24 h
Description: (§3) Figure 4 Activation of ATF4 and up-regulation of typical p53 target genes. (A–E) Western blot analysis of p53 protein levels and upregulation of ATF4, PUMA, DR5 and p21. Cells were treated for 24 h with indicated compounds, concentrations and cell lines. Abbreviations: S.E.: Short exposure; L.E.: Long exposure.
(§4) After treatment, protein lysates were collected for Western blot analysis. A total of 15 μg of protein was used for SDS-PAGE. After primary and secondary antibody incubations, the signal was detected by a chemiluminescence detection kit, imaged by Syngene (Imgen Technologies). Antibodies for NAG-1 (GDF15) and P53 were from Santa Cruz Biotechnology; for caspase 8, cleaved caspase 8, caspase 9, caspase 3, cleavage PARP, eIF2α, p-eIF2α (Ser51), CHOP, ATF4, DR5, and PUMA were from Cell Signaling Technology. Noxa and p21 were from Calbiochem. Ran was from BD Biosciences.

p53 protein = assay: Western blot, p53 protein levels; type: cell-based, human
Description: Cells were treated for 24 h with indicated compounds, concentrations and cell lines. Abbreviations: S.E.: Short exposure; L.E.: Long exposure.
as §4

DR5 = assay: Western blot, DR5 induction; type: cell-based, human; details: five cell lines, 24 h
Description: as §3, §4

PUMA = assay: Western blot, PUMA induction; type: cell-based, human; details: five cell lines, 24 h
Description: as §3, §4

p21 = assay: Western blot, p21 induction; type: cell-based, human; details: five cell lines, 24 h
Description: as §3, §4

[6] = cited from earlier work

CCCCCCCCOC(=O)CCc1c(C)[nH]c(/C=C2\N=C(c3ccc[nH]3)C=C2OC)c1C [PG3-Oc]
IC50 (HT29 (R273H)): 0.031 µM | IC50 (TOV-112D (R175H)): 0.038 µM | IC50 (HCT116 (P53−/−)): 0.062 µM | IC50 (HCT116 (WT)): 0.047 µM | IC50 (HCT116 (R175H)): 0.052 µM | IC50 [1]: 0.306 µM | IC50 [2]: 0.078 µM | toxicity at 10 μM [3]: too toxic | potency compared among PG3-Oc, prodigiosin and Obatoclax [4]: same potency | p53-responsive reporter activity ([5]; 1.11 μM, 6 hour and 15 hour time points): do not activate reporter activity | p53-responsive reporter activity ([5]; 10 μM, 6 hours): activation | upregulation of ATF4 (ATF4): induce upregulation of ATF4 | wild-type p53 protein level (p53 protein; HCT116, 24 h): do not upregulate expression | endogenous mutant p53 R273H protein level (p53 protein; HT29, 24 h): no effects on stability | endogenous mutant p53 R175H protein level (p53 protein; TOV-112D, 24 h): no effects on stability | exogenous mutant p53 R175H protein level (p53 protein; engineered HCT116-R175H cells, 24 h): stabilize | upregulation of DR5 (DR5): consistently induce upregulation | upregulation of PUMA (PUMA): consistently induce upregulation | upregulation of p21 (p21): consistently induce upregulation | stability in vivo [6]: unstable in vivo
